Reference: ChEMBL document CHEMBL1133113, “Fast calculation of molecular polar surface area as a sum of fragment-based contributions and its application to the prediction of drug transport properties” (J Med Chem, 2000)

Assay: Percent of drug absorbed by human intestine after oral administration
Type: ADME, organism-based
Settings: in vivo

SMILES | Fa [%]
C=CCc1ccccc1OCC(O)CNC(C)C (centres undefined) [ALPRENOLOL] | 96
Cc1cc(=O)n(-c2ccccc2)n1C [ANTIPYRINE] | 97
O=C(O)P(=O)(O)O [FOSCARNET] | 17
OC[C@H]1O[C@@H](O[C@@H]2[C@@H](CO)O[C@](O)(CO)[C@H]2O)[C@H](O)[C@@H](O)[C@H]1O [LACTULOSE] | 0.6
OC[C@@H](O)[C@@H](O)[C@H](O)[C@H](O)CO [MANNITOL] | 26
Cc1ccccc1N1C(=O)c2cc(S(N)(=O)=O)c(Cl)cc2NC1C (centres undefined) [METOLAZONE] | 64
O=C(O)c1cc(/N=N/c2ccc(O)c(C(=O)O)c2)ccc1O [OLSALAZINE] | 2.3
C=CCOc1ccccc1OCC(O)CNC(C)C (centres undefined) [OXPRENOLOL] | 97
CC(C)NCC(O)COc1cccc2[nH]ccc12 (centres undefined) [PINDOLOL] | 92
CC(=O)Nc1ccc(OCC(O)CNC(C)C)cc1 (centres undefined) [PRACTOLOL] | 95
OC[C@H]1O[C@H](OC[C@H]2O[C@H](O[C@]3(CO)O[C@H](CO)[C@@H](O)[C@@H]3O)[C@H](O)[C@@H](O)[C@@H]2O)[C@H](O)[C@@H](O)[C@H]1O [RAFFINOSE] | 0.3
O=C(O)c1cc(/N=N/c2ccc(S(=O)(=O)Nc3ccccn3)cc2)ccc1O [SULFASALAZINE] | 12
CCN1CCCC1CNC(=O)c1cc(S(N)(=O)=O)ccc1OC (centres undefined) [SULPIRIDE] | 36
NC[C@H]1CC[C@H](C(=O)O)CC1 [TRANEXAMIC ACID] | 55
